Data set [1] can be described thus: Stability against oxygen in air. It counts as physicochemical. The settings on record: dissolved either in DMSO/water or in acetic acid/water, stirred on air for more than a week. An excerpt: Stability Against Oxygen in Air
The compounds • 4-{4-[3-(2-[1,2,4]Triazol-1-yl-5-trifluoromethyl-phenyl)-ureido]-phenoxy}-pyridine-2-carboxylic acid methylamide, • 4-{4-[3-(2-[1,2,3]Triazol-1-yl-5-trifluoromethyl-phenyl)-ureido]-phenoxy}-pyridine-2-carboxylic acid methylamide, 525946 • 4-{4-[3-(2-Imidazol-1-yl-5-trifluoromethyl-phenyl)-ureido]-phenoxy}-pyridine-2-carboxylic acid methylamide, and • 1-[4-(Pyridin-4-yloxy)-phenyl]-3-(2-[1,2,4]triazol-1-yl-5-trifluoromethyl-phenyl)-urea, respectively, were dissolved either in DMSO/water or in acetic acid/water and stirred on air for more than a week.

For a further data set, the target named is T1, Tie-2 (Homo sapiens, UniProt Q02763).
T1 construct: The catalytic sections of the corresponding tyrosine kinases are preferably expressed as GST fusion proteins; GST
T1 sequence (Q02763 824-1096 limits assumed): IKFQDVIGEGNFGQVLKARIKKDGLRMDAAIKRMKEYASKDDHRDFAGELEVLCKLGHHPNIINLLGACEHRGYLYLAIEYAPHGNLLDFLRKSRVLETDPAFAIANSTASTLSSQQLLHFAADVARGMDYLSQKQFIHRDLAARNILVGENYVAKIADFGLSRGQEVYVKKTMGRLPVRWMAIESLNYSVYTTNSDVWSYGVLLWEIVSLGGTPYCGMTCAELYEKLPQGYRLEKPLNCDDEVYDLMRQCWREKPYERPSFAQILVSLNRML
Description: flashplate kinase assay, phosphorylation of poly-Glu-Tyr (4:1) by Tie-2. The class given is biochemical. The settings on record: read-out: TIE2 [IC50]. As for the experimental part: (§1) The biological activity of N-oxide compounds according the invention are tested in one or more standard kinase assay systems as described in the art. Preferably, the compounds according the invention are tested in a kinase assay as described below, or in analogous manner thereof:
(§2) In this assay the inhibitory action of the compounds according to the invention on the phosphorylation of the substrates Biotin-poly-Glu-Tyr (4:1) by VGFR2 (KDR) or poly-Glu-Tyr (4:1) by Tie-2, respectively, is tested. In the wells of a streptavidin-coated microtiter flashplate, VEGFR2, or a microtiter flashplate, Tie-2, respectively, phosphorylate the substrates in the presence of ATPyS and small amounts of radioactive ^33P-ATP. Phosphorylated substrates bind during enzymatic reaction to the walls of the wells. The phosphorylation reaction is stopped by addition of a stopping reagent, the liquid is removed from the wells and the wells are rinsed. The amount of radioactivity incorporated into the substrate bound to the well is then measured. The reaction is done in presence of different concentrations of the compound and in absence of the compound. The inhibitory action of the compounds according to the invention is determined on the basis of the ratio of radioactivity found in the presence of a compound according to the invention in comparison to the radioactivity found in the enzymatic reaction in the absence of a compound according to the invention. The catalytic sections of the corresponding tyrosine kinases are preferably expressed as GST fusion proteins.
(§3) 100 μL of the compound to be tested are applied to a well (starting concentration: 1E-3 mol/L in 100% DMSO); the dilution for the determination of the IC 50 values is performed on a BiomekFX robot in 10 steps (range of concentration is 1E-5 to 1E-10 mol/L in the assay, i.e. 1E-5, 1E-6, 3E-7, 1E-7, 3E-8, 1E-8, 3E-9, 1E-9, 3E-10, 1E-10 mol/L).

Another data set concerns the target T2, VGFR2 (KDR) (Homo sapiens, UniProt P35968).
T2 construct: The catalytic sections of the corresponding tyrosine kinases are preferably expressed as GST fusion proteins; GST
Description: flashplate kinase assay, phosphorylation of Biotin-poly-Glu-Tyr (4:1) by VGFR2 (KDR). The class given is biochemical. How it is done:
as §1, §2, §3

Data on 8 compounds can be found in patent US20090124633A1, “N-OXIDES OF HETEROCYCLIC SUBSTITUTED BISARYLUREAS FOR TREATING KINASE-MEDIATED DISEASES” (priority 2006, published 2009).

T2 sequence (P35968 834-1162 limits assumed): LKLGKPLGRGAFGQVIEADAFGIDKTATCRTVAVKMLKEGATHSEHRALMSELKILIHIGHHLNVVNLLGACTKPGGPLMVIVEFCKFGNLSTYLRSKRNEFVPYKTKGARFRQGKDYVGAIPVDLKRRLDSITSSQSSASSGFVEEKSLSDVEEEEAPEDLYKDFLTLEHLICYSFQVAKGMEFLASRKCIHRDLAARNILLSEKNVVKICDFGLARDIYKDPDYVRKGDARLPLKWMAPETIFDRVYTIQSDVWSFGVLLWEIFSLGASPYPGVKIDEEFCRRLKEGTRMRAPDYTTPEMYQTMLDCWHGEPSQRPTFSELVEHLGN

On to `O=C(Nc1ccc(Oc2ccncc2)cc1)Nc1cc(C(F)(F)F)ccc1-n1cncn1` [1-[4-(Pyridin-4-yloxy)-phenyl]-3-(2-[1,2,4]triazol-1-yl-5-trifluoromethyl-phenyl)-urea], for which, in data set [1], the “N-oxide formation on air” value is “No N-oxide formation could be detected”.

As to `CNC(=O)c1cc(Oc2ccc(NC(=O)Nc3cc(C(F)(F)F)ccc3-n3ccnc3)cc2)ccn1` [4-{4-[3-(2-Imidazol-1-yl-5-trifluoromethyl-phenyl)-ureido]-phenoxy}-pyridine-2-carboxylic acid methylamide], the “N-oxide formation on air” value in data set [1] is on record as “No N-oxide formation could be detected”.

For the compound `CNC(=O)c1cc(Oc2ccc(NC(=O)Nc3cc(C(F)(F)F)ccc3-n3ccnn3)cc2)ccn1` [4-{4-[3-(2-[1,2,3]Triazol-1-yl-5-trifluoromethyl-phenyl)-ureido]-phenoxy}-pyridine-2-carboxylic acid methylamide], in data set [1], the “N-oxide formation on air” value was “No N-oxide formation could be detected”. For `CNC(=O)c1cc(Oc2ccc(NC(=O)Nc3cc(C(F)(F)F)ccc3-n3cncn3)cc2)ccn1` [4-{4-[3-(2-[1,2,4]Triazol-1-yl-5-trifluoromethyl-phenyl)-ureido]-phenoxy}-pyridine-2-carboxylic acid methylamide], the “N-oxide formation on air” value in data set [1] is given as “No N-oxide formation could be detected”. Regarding `CNC(=O)c1cc(Oc2ccc(NC(=O)Nc3cc(C(F)(F)F)ccc3-n3cncn3)cc2)cc[n+]1[O-]` [Compound 11, 1-Oxy-4-{4-[3-(2-[1,2,4]triazol-1-yl-5-trifluoromethyl-phenyl)-ureido]-phenoxy}-pyridine-2-carboxylic acid methylamide], the IC50 (usually the point on the concentration scale where inhibition reaches its midpoint) on Tie-2 was found to be 52 nM; at VGFR2 (KDR), 14 nM.

For `CNC(=O)c1cc(Oc2ccc(NC(=O)Nc3cc(C(F)(F)F)ccc3-n3ccnn3)cc2)cc[n+]1[O-]` [Compound 12, 1-Oxy-4-{4-[3-(2-[1,2,3]triazol-1-yl-5-trifluoromethyl-phenyl)-ureido]-phenoxy}-pyridine-2-carboxylic acid methylamide], the IC50 at Tie-2 worked out at 30 nM; at VGFR2 (KDR), 49 nM. The matching figures for `CNC(=O)c1cc(Oc2ccc(NC(=O)Nc3cc(C(F)(F)F)ccc3-n3ccnc3)cc2)cc[n+]1[O-]` [Compound 13, 4-{4-[3-(2-Imidazol-1-yl-5-trifluoromethyl-phenyl)-ureido]-phenoxy}-1-oxy-pyridine-2-carboxylic acid methylamide]: 49 nM and 56 nM. For `O=C(Nc1ccc(Oc2cc[n+]([O-])cc2)cc1)Nc1cc(C(F)(F)F)ccc1-n1cncn1` [Compound 14, 1-[4-(1-Oxy-pyridin-4-yloxy)-phenyl]-3-(2-[1,2,4]triazol-1-yl-5-trifluoromethyl-phenyl)-urea], in that order: 740 nM and 1200 nM.
